Experimental data taken from US20180118707A1, “BETA-NAPHTHOISOFLAVONES, COMPOSITIONS CONTAINING, AND USES OF, SAME” (Thesan Pharmaceuticals, Inc., priority 2015, published 2018).

Key:
CYP1A1 [1] = test: Induction of CYP1A1 enzyme in HepG2 cells, EROD assay; assay type: cell-based, human; conditions: human, probe 7-ethoxyresorufin (8 μM)
Description: (§1) The formation of resorufin is quantified by fluorometry with a fluorescence plate reader. Fluorescence is determined at λex 570 nm and λem 590 nm. The amount of resorufin is calculated from a standard curve generated using 0 to 1 μM resorufin in water at ½ log dilutions. The remaining (i.e. all cells present at the beginning of analysis, since only supernatant is taken to assay EROD) live cells are subsequently utilized for the MIT cytotoxicity assay. MTT is made up in serum-free medium at 5 mg/ml. then added to the cells giving a final concentration of 10% (0.5 mg/ml MTT final) then incubated for 2 h. The medium is carefully removed, then MTT formazan is solubilized by adding 200 μl of DMSO and subsequently mixed on a plate shaker. The absorbance is measured spectra photometrically at 550 nm and background absorbance at 690 nm is subtracted. A standard curve generated using MIT formazan (dissolved in DMSO) from O—200 μM (0, 2, 5, 10, 20, 50, 100, 200 μM) is used to calculate the final experimental values which are then expressed as (wnol resarufin/mol MTT formazan) or as fold-Induction compared to solvent.

human sebocyte cells = test: MTT cytotoxicity assay in human cultured sebocytes after EROD; assay type: cell-based
Description: The essential methodology for culture and handling of human cultured sebocytes has been described in earlier examples for HEPG2 and NHK cells. Cells are seeded at between 1×10^4 and 2.5×10^4 cells/well in a 96-well microtitre plate. […] The formation of resorufin is quantified by fluorometry with a fluorescence plate reader. Fluorescence is determined at λex 570 nm and λem 590 nm. The amount of resorufin is calculated from a standard curve generated using 0 to 1 μM resorufin in water at ½ log dilutions. The remaining (i.e. all cells present at the beginning of analysis, since only supernatant is taken to assay EROD) live cells are subsequently utilized for the MU cytotoxicity assay. MU is made up in serum-free medium at 5 mg/mi. then added to the cells giving a final concentration of 10% (0.5 mg/ml MIT final) then incubated for 2 h. The medium is carefully removed, then MIT formazan is solubilized by adding 200 μl of DMSO and subsequently mixed on a plate shaker. The absorbance is measured spectrophotometrically at 550 nm and background absorbance at […] is subtracted. A standard curve generated using MTT formazan (dissolved in DMSO) from O—200 μM (0, 2, 5, 10, 20, 50, 100, 200 μM) is used to calculate the final experimental values which are then expressed as (μmol resorufin/mol MTT formazan) or as fold-induction compared to solvent.

sebaceous glands = test: Mouse ear assay for determination of sebaceous gland prevalence; assay type: in vivo; conditions: C57BL/6 mice, ears, 1% solution in DMSO:acetone 50:50 twice a day for five days, vs controls
Description: C57BL/6.I male mice (Harlan Models), approximately 4-5 weeks of age, body weight 20-30 g, were acclimatized (individually housed) for 5 days in a 12 hour light/dark cycle standard laboratory environment (T=20-24° C., relative humidity 30-70%, 15-20 air changes per hour) with access to water and standard rodent chow (Harlan Teklad 2014C supplied by Harlan Laboratories Models, S.L.) ad libitum. Animals were anesthetized with isoflurane and the test article (80 ul, 1% solution in DMSO:acetone 50:50) was administered to the outer surface of each of the ears of between 2 and 5 mice twice a day for five days by dermal application using a micropipette tip (a little volume of the solution was also applied on the inner side of the ears). All animals were monitored daily for reaction to the treatment, signs of illness, and behavioral changes. Body weights were recorded before the first administration and immediately prior to sacrifice. Approximately 12 to 16 hours after the final administration on day 5 the mice were sacrificed by i.p. injection of sodium pentobarbital (200 mg/kg) and the ears were collected. Each ear was sectioned into two halves. For each animal, one-half of one ear was fixed, in neutral phosphate-buffered 4% formaldehyde solution (4% formalin). This trimmed section of the ear was then processed, embedded in paraffin wax and stored at room temperature. […]

CYP1A1 [2] = test: Induction of CYP1A1 enzyme in human cultured sebocytes, EROD assay; assay type: cell-based; conditions: cultured sebocytes, probe 7-ethoxyresorufin (8 μM)
Description: Cells are seeded at between 1×10^4 and 2.5×10^4 cells/well in a 96-well microtitre plate. […] 100 μl of medium is then transferred to a fresh black 96-well plate and 130 μl methanol added. The formation of resorufin is quantified by fluorometry with a fluorescence plate reader. Fluorescence is determined at λex 570 nm and λem 590 nm. The amount of resorufin is calculated from a standard curve generated using 0 to 1 μM resorufin in water at ½ log dilutions. The remaining (i.e. all cells present at the beginning of analysis, since only supernatant is taken to assay EROD) live cells are subsequently utilized for the MU cytotoxicity assay. MU is made up in serum-free medium at 5 mg/mi. then added to the cells giving a final concentration of 10% (0.5 mg/ml MIT final) then incubated for 2 h. The medium is carefully removed, then MIT formazan is solubilized by adding 200 μl of DMSO and subsequently mixed on a plate shaker. The absorbance is measured spectrophotometrically at 550 nm and background absorbance at […] is subtracted. A standard curve generated using MTT formazan (dissolved in DMSO) from O—200 μM (0, 2, 5, 10, 20, 50, 100, 200 μM) is used to calculate the final experimental values which are then expressed as (μmol resorufin/mol MTT formazan) or as fold-induction compared to solvent.

HepG2 cells = test: MTT cytotoxicity assay in HepG2 cells after EROD; assay type: cell-based, human
Description: as §1, with “subtracted.” for “subtracted. A standard curve generated using MIT formazan (dissolved in DMSO) from O—200 μM (0, 2, 5, 10, 20, 50, 100, 200 μM) is used to calculate the final experimental values which are then expressed as (wnol resarufin/mol MTT formazan) or as fold-Induction compared to solvent.”

Compound	EC50 at 24 h (CYP1A1 [1]) [nM]	EC50 at 24 h (CYP1A1 [2]) [nM]	Toxicity threshold (human sebocyte cells) [µM]	number of differentiated sebocytes (sebaceous glands)	number of sebaceous glands (sebaceous glands)	Toxicity threshold (HepG2 cells) [µM]
COc1ccccc1-c1coc2ccc3ccccc3c2c1=O [Compound F]	2000	200	50	–	–	>30
COc1cccc(-c2coc3ccc4ccccc4c3c2=O)c1 [Compound G]	2000	250	30	–	–	100
O=c1c(-c2cccc(O)c2)coc2ccc3ccccc3c12 [Compound H]	1500	250	>30	–	–	>100

Now from value to molecule, other results behind:

EC50 at 24 h (CYP1A1 [1]) [nM]	EC50 at 24 h (CYP1A1 [2]) [nM]	Compound	Toxicity threshold (human sebocyte cells) [µM]	number of differentiated sebocytes (sebaceous glands)	number of sebaceous glands (sebaceous glands)	Toxicity threshold (HepG2 cells) [µM]
1000	50	O=c1c(-c2ccccc2)coc2ccc3ccccc3c12 [Compound B]	>30	reduction	clear reduction	>30
1500	50	O=c1c(-c2ccc(O)cc2)coc2ccc3ccccc3c12 [Compound J]	>30	–	–	100
